US5438117A, “Hexapeptides deriving from aglucoteicoplanin and a process for preparing them” (Gruppo Lepetit S.p.A., priority 1990, dated 1995)

Experiments:
[1] = N. Pant et al and P. M. Booth et al; cited from earlier work
[2] = test system: Staph. haemolyticus clin. isolate (TLS); assay: In vitro MIC, microdilution method in broth; type: cell-based; conditions: inoculum 10^5 cfu/ml, 18-24 hours at 37° C.
Protocol: (§1) The antimicrobial activity, expressed as minimal inhibitory concentration (MIC), of the hexapeptide of formula (I), R=hydrogen, against selected strains of Gram-positive bacteria was determined in comparison with teicoplanin. The microdilution method in DIFCO TODDO-HEWITT broth (Streptococci) or OXOID ISO-SENSITEST broth (Staphylococci) was used.
(§2) TLS = Low Sensitive to Teicoplanin
(§3) *Inoculum: 10^5 cfu/ml.

Staph. aureus (TLS) = assay: In vitro MIC, microdilution method in broth; type: cell-based; conditions: Staph. aureus (TLS = Low Sensitive to Teicoplanin); inoculum 10^5 cfu/ml; 18-24 hours at 37° C.
Protocol: as §1, §2, §3

Staph. epidermidis (TLS) = assay: In vitro MIC, microdilution method in broth; type: cell-based; conditions: Staph. epidermidis (TLS = Low Sensitive to Teicoplanin); inoculum 10^5 cfu/ml; 18-24 hours at 37° C.
Protocol: as §1, §2, §3

Strep. pyogenes C 203 = assay: In vitro MIC, microdilution method in broth; type: cell-based; conditions: DIFCO TODDO-HEWITT broth, inoculum 10^5 cfu/ml, 18-24 hours at 37° C.
Protocol: as §1, §3

[3] = test system: Staph. epidermidis ATCC 12228; assay: In vitro MIC, microdilution method in broth; type: cell-based; conditions: inoculum 10^5 cfu/ml, 18-24 hours at 37° C.
Protocol: as §1, §3

Staph. aureus Tour = assay: In vitro MIC, microdilution method in broth; type: cell-based; conditions: OXOID ISO-SENSITEST broth, inoculum 10^5 cfu/ml, 18-24 hours at 37° C.
Protocol: as §1, §3

[4] = test system: Entero. faecalis ATCC 7080; assay: In vitro MIC, microdilution method in broth; type: cell-based; conditions: inoculum 10^5 cfu/ml, 18-24 hours at 37° C.
Protocol: as §1, §3

Strep. pneumoniae UC 41 = assay: In vitro MIC, microdilution method in broth; type: cell-based; conditions: DIFCO TODDO-HEWITT broth, inoculum 10^5 cfu/ml, 18-24 hours at 37° C.
Protocol: as §1, §3

[5] = test system: two strains of S. aureus and S. epidermidis low sensitive to teicoplanin; assay: Activity relative to teicoplanin (from MIC); type: cell-based
Protocol: as §1

Aglucovancomycin Hexapeptide
Biological activity [1]: inactivity

aglucoteicoplanin hexapeptide [Example 1]
MIC [2]: 16 µg/mL | MIC (Staph. aureus (TLS)): 2 µg/mL | MIC (Staph. epidermidis (TLS)): 1 µg/mL | MIC (Strep. pyogenes C 203): 8 µg/mL | MIC [3]: 0.5 µg/mL | MIC (Staph. aureus Tour): 2 µg/mL | MIC [4]: 8 µg/mL | MIC (Strep. pneumoniae UC 41): 4 µg/mL | Activity compared with teicoplanin [5]: four to sixteen times more active

teicoplanin
MIC [2]: 16 µg/mL | MIC (Staph. aureus (TLS)): 8 µg/mL | MIC (Staph. epidermidis (TLS)): 16 µg/mL | MIC (Strep. pyogenes C 203): 0.063 µg/mL | MIC [3]: 0.5 µg/mL | MIC (Staph. aureus Tour): 0.5 µg/mL | MIC [4]: 0.125 µg/mL | MIC (Strep. pneumoniae UC 41): 0.063 µg/mL

vancomycin hexapeptide
Biological activity [1]: inactivity
